Source: ChEMBL document CHEMBL4359841, “Late-Stage Functionalization of Platensimycin Leading to Multiple Analogues with Improved Antibacterial Activity in Vitro and in Vivo” (2019)
Converted amounts (≈) assume the structure as drawn. The source made the active and inactive calls. Unless noted, the rule behind the calls is not given here.

Key:
Staphylococcus aureus [1] = test: Inhibition of FabB/FabF in methicillin-resistant Staphylococcus aureus assessed as antibacterial activity at 5 ug/disk after 18 hrs by agar disk diffusion method
Staphylococcus aureus [2] = test: Inhibition of FabB/FabF in Staphylococcus aureus ATCC 29213 assessed as antibacterial activity after 16 hrs by agar dilution method
Staphylococcus aureus [3] = test: Inhibition of FabB/FabF in methicillin-sensitive Staphylococcus aureus assessed as antibacterial activity after 16 hrs by agar dilution method
Staphylococcus aureus [4] = test: Inhibition of FabB/FabF in methicillin-resistant Staphylococcus aureus assessed as antibacterial activity after 16 hrs by agar dilution method
Staphylococcus aureus [5] = test: Inhibition of FabB/FabF in methicillin-resistant Staphylococcus aureus 2951 clinical isolate assessed as antibacterial activity after 16 hrs by agar dilution method
Staphylococcus aureus [6] = test: Inhibition of FabB/FabF in methicillin-resistant Staphylococcus aureus 2953 clinical isolate assessed as antibacterial activity after 16 hrs by agar dilution method
Staphylococcus aureus [7] = test: Inhibition of FabB/FabF in methicillin-resistant Staphylococcus aureus 2957 clinical isolate assessed as antibacterial activity after 16 hrs by agar dilution method
Staphylococcus aureus [8] = test: Inhibition of FabB/FabF in methicillin-resistant Staphylococcus aureus 2959 clinical isolate assessed as antibacterial activity after 16 hrs by agar dilution method
Staphylococcus aureus [9] = test: Inhibition of FabB/FabF in methicillin-resistant Staphylococcus aureus 2968 clinical isolate assessed as antibacterial activity after 16 hrs by agar dilution method
Staphylococcus aureus [10] = test: Inhibition of FabB/FabF in methicillin-resistant Staphylococcus aureus 2976 clinical isolate assessed as antibacterial activity after 16 hrs by agar dilution method
Staphylococcus aureus [11] = test: Inhibition of FabB/FabF in methicillin-resistant Staphylococcus aureus 2978 clinical isolate assessed as antibacterial activity after 16 hrs by agar dilution method
Staphylococcus aureus [12] = test: Inhibition of FabB/FabF in methicillin-resistant Staphylococcus aureus 2980 clinical isolate assessed as antibacterial activity after 16 hrs by agar dilution method
Staphylococcus aureus [13] = test: Inhibition of FabB/FabF in methicillin-resistant Staphylococcus aureus 2984 clinical isolate assessed as antibacterial activity after 16 hrs by agar dilution method
Staphylococcus aureus [14] = test: Inhibition of FabB/FabF in methicillin-resistant Staphylococcus aureus 3046 clinical isolate assessed as antibacterial activity after 16 hrs by agar dilution method
Staphylococcus aureus [15] = test: Inhibition of FabB/FabF in methicillin-resistant Staphylococcus aureus 3065 clinical isolate assessed as antibacterial activity after 16 hrs by agar dilution method
Staphylococcus aureus [16] = test: Inhibition of FabB/FabF in methicillin-resistant Staphylococcus aureus 3079 clinical isolate assessed as antibacterial activity after 16 hrs by agar dilution method
Staphylococcus aureus [17] = test: Inhibition of FabB/FabF in methicillin-resistant Staphylococcus aureus 3082 clinical isolate assessed as antibacterial activity after 16 hrs by agar dilution method
Staphylococcus aureus [18] = test: Inhibition of FabB/FabF in methicillin-resistant Staphylococcus aureus 3086 clinical isolate assessed as antibacterial activity after 16 hrs by agar dilution method
Staphylococcus aureus [19] = test: Inhibition of FabB/FabF in methicillin-resistant Staphylococcus aureus 3090 clinical isolate assessed as antibacterial activity after 16 hrs by agar dilution method
Staphylococcus aureus [20] = test: Inhibition of FabB/FabF in methicillin-resistant Staphylococcus aureus 3097 clinical isolate assessed as antibacterial activity after 16 hrs by agar dilution method
Staphylococcus aureus [21] = test: Inhibition of FabB/FabF in methicillin-resistant Staphylococcus aureus 3103 clinical isolate assessed as antibacterial activity after 16 hrs by agar dilution method
Staphylococcus aureus [22] = test: Inhibition of FabB/FabF in methicillin-resistant Staphylococcus aureus 3104 clinical isolate assessed as antibacterial activity after 16 hrs by agar dilution method
Staphylococcus aureus [23] = test: Inhibition of FabB/FabF in methicillin-resistant Staphylococcus aureus 3105 clinical isolate assessed as antibacterial activity after 16 hrs by agar dilution method
Staphylococcus aureus [24] = test: Inhibition of FabB/FabF in methicillin-resistant Staphylococcus aureus 3110 clinical isolate assessed as antibacterial activity after 16 hrs by agar dilution method
Staphylococcus aureus [25] = test: Inhibition of FabB/FabF in methicillin-resistant Staphylococcus aureus 3114 clinical isolate assessed as antibacterial activity after 16 hrs by agar dilution method
Staphylococcus aureus [26] = test: Inhibition of FabB/FabF in methicillin-resistant Staphylococcus aureus 3116 clinical isolate assessed as antibacterial activity after 16 hrs by agar dilution method
Staphylococcus aureus [27] = test: Inhibition of FabB/FabF in methicillin-resistant Staphylococcus aureus 3140 clinical isolate assessed as antibacterial activity after 16 hrs by agar dilution method
Staphylococcus aureus [28] = test: Inhibition of FabB/FabF in methicillin-resistant Staphylococcus aureus 3150 clinical isolate assessed as antibacterial activity after 16 hrs by agar dilution method
Staphylococcus aureus [29] = test: Inhibition of FabB/FabF in methicillin-resistant Staphylococcus aureus 3158 clinical isolate assessed as antibacterial activity after 16 hrs by agar dilution method
Staphylococcus aureus [30] = test: Inhibition of FabB/FabF in methicillin-resistant Staphylococcus aureus 3161 clinical isolate assessed as antibacterial activity after 16 hrs by agar dilution method
Staphylococcus aureus [31] = test: Inhibition of FabB/FabF in methicillin-resistant Staphylococcus aureus 3181 clinical isolate assessed as antibacterial activity after 16 hrs by agar dilution method
Staphylococcus aureus [32] = test: Inhibition of FabB/FabF in methicillin-resistant Staphylococcus aureus 3182 clinical isolate assessed as antibacterial activity after 16 hrs by agar dilution method
Staphylococcus aureus [33] = test: Inhibition of FabB/FabF in methicillin-resistant Staphylococcus aureus 3188 clinical isolate assessed as antibacterial activity after 16 hrs by agar dilution method
Staphylococcus aureus [34] = test: Inhibition of FabB/FabF in methicillin-resistant Staphylococcus aureus 3193 clinical isolate assessed as antibacterial activity after 16 hrs by agar dilution method
Staphylococcus aureus [35] = test: Inhibition of FabB/FabF in methicillin-resistant Staphylococcus aureus 3196 clinical isolate assessed as antibacterial activity after 16 hrs by agar dilution method
Staphylococcus aureus [36] = test: Inhibition of FabB/FabF in methicillin-sensitive Staphylococcus aureus 2952 clinical isolate assessed as antibacterial activity after 16 hrs by agar dilution method
Staphylococcus aureus [37] = test: Inhibition of FabB/FabF in methicillin-sensitive Staphylococcus aureus 2954 clinical isolate assessed as antibacterial activity after 16 hrs by agar dilution method
Staphylococcus aureus [38] = test: Inhibition of FabB/FabF in methicillin-sensitive Staphylococcus aureus 2955 clinical isolate assessed as antibacterial activity after 16 hrs by agar dilution method
Staphylococcus aureus [39] = test: Inhibition of FabB/FabF in methicillin-resistant Staphylococcus aureus 2962 clinical isolate assessed as antibacterial activity after 16 hrs by agar dilution method
Staphylococcus aureus [40] = test: Inhibition of FabB/FabF in methicillin-sensitive Staphylococcus aureus 2956 clinical isolate assessed as antibacterial activity after 16 hrs by agar dilution method
Staphylococcus aureus [41] = test: Antibacterial activity against methicillin-resistant Staphylococcus aureus infected in C57BL/6J mouse model of peritonitis assessed as mouse survival at 10 mg/kg, ip dosed at 1 hr and 5 hrs post infection and measured for 7 days relative to control; assay type: functional

For `C[C@]12C[C@@]34C=CC(=O)[C@@](C)(CCC(=O)Nc5c(O)ccc(C(=O)O)c5O)[C@@H]3[C@H](C[C@@H]1C4)O2`, the “antibacterial activity (disk diffusion, qualitative)” value (Staphylococcus aureus [1]) was “Active”, the MIC (Staphylococcus aureus [2]) was 1 µg/mL (≈ 2.27 µM) and the MIC (Staphylococcus aureus [3]) was 0.5 µg/mL (≈ 1.13 µM). The MIC (Staphylococcus aureus [4]) was 0.5 µg/mL (≈ 1.13 µM), the MIC (Staphylococcus aureus [5]) was 1 µg/mL (≈ 2.27 µM) and the MIC (Staphylococcus aureus [6]) was 1 µg/mL (≈ 2.27 µM). The MIC (Staphylococcus aureus [7]) was 1 µg/mL (≈ 2.27 µM), the MIC (Staphylococcus aureus [8]) was 1 µg/mL (≈ 2.27 µM) and the MIC (Staphylococcus aureus [9]) was 1 µg/mL (≈ 2.27 µM). The MIC (Staphylococcus aureus [10]) was 1 µg/mL (≈ 2.27 µM), the MIC (Staphylococcus aureus [11]) was 1 µg/mL (≈ 2.27 µM) and the MIC (Staphylococcus aureus [12]) was 1 µg/mL (≈ 2.27 µM). It also gave an MIC (Staphylococcus aureus [13]) of 1 µg/mL (≈ 2.27 µM), an MIC (Staphylococcus aureus [14]) of 1 µg/mL (≈ 2.27 µM) and an MIC (Staphylococcus aureus [15]) of 1 µg/mL (≈ 2.27 µM). The MIC (Staphylococcus aureus [16]) was 1 µg/mL (≈ 2.27 µM), the MIC (Staphylococcus aureus [17]) was 1 µg/mL (≈ 2.27 µM) and the MIC (Staphylococcus aureus [18]) was 1 µg/mL (≈ 2.27 µM). For the same molecule, the MIC (Staphylococcus aureus [19]) was 1 µg/mL (≈ 2.27 µM), the MIC (Staphylococcus aureus [20]) was 1 µg/mL (≈ 2.27 µM) and the MIC (Staphylococcus aureus [21]) was 1 µg/mL (≈ 2.27 µM). For the same molecule, the MIC (Staphylococcus aureus [22]) was 1 µg/mL (≈ 2.27 µM), the MIC (Staphylococcus aureus [23]) was 1 µg/mL (≈ 2.27 µM) and the MIC (Staphylococcus aureus [24]) was 1 µg/mL (≈ 2.27 µM). It also gave an MIC (Staphylococcus aureus [25]) of 1 µg/mL (≈ 2.27 µM), an MIC (Staphylococcus aureus [26]) of 1 µg/mL (≈ 2.27 µM) and an MIC (Staphylococcus aureus [27]) of 1 µg/mL (≈ 2.27 µM). The MIC (Staphylococcus aureus [28]) was 1 µg/mL (≈ 2.27 µM), the MIC (Staphylococcus aureus [29]) was 1 µg/mL (≈ 2.27 µM) and the MIC (Staphylococcus aureus [30]) was 1 µg/mL (≈ 2.27 µM). The MIC (Staphylococcus aureus [31]) was 1 µg/mL (≈ 2.27 µM), the MIC (Staphylococcus aureus [32]) was 1 µg/mL (≈ 2.27 µM) and the MIC (Staphylococcus aureus [33]) was 1 µg/mL (≈ 2.27 µM). The MIC (Staphylococcus aureus [34]) was 1 µg/mL (≈ 2.27 µM), the MIC (Staphylococcus aureus [35]) was 1 µg/mL (≈ 2.27 µM) and the MIC (Staphylococcus aureus [36]) was 1 µg/mL (≈ 2.27 µM). It also gave an MIC (Staphylococcus aureus [37]) of 1 µg/mL (≈ 2.27 µM), an MIC (Staphylococcus aureus [38]) of 1 µg/mL (≈ 2.27 µM) and an MIC (Staphylococcus aureus [39]) of 1 µg/mL (≈ 2.27 µM). For the same molecule, the MIC (Staphylococcus aureus [40]) was 1 µg/mL (≈ 2.27 µM) and the Survival (Staphylococcus aureus [41]) was “inactive”.
`C[C@]12C[C@@]34C=C(SC5CCCCC5)C(=O)[C@@](C)(CCC(=O)Nc5c(O)ccc(C(=O)O)c5O)[C@@H]3[C@H](C[C@@H]1C4)O2` was tested, and the “antibacterial activity (disk diffusion, qualitative)” value (Staphylococcus aureus [1]) was “Active”, the MIC (Staphylococcus aureus [2]) was 0.5 µg/mL (≈ 0.9 µM) and the MIC (Staphylococcus aureus [3]) was 0.25 µg/mL (≈ 0.45 µM). The MIC (Staphylococcus aureus [4]) was 0.25 µg/mL (≈ 0.45 µM), the inhibition (Staphylococcus aureus [5]) was “Active” and the inhibition (Staphylococcus aureus [6]) was “Active”. The inhibition (Staphylococcus aureus [7]) was “Active”, the inhibition (Staphylococcus aureus [8]) was “Active” and the inhibition (Staphylococcus aureus [9]) was “Active”. For the same molecule, the inhibition (Staphylococcus aureus [10]) was “Active”, the inhibition (Staphylococcus aureus [11]) was “Active” and the inhibition (Staphylococcus aureus [12]) was “Active”. For the same molecule, the inhibition (Staphylococcus aureus [13]) was “Active”, the inhibition (Staphylococcus aureus [14]) was “Active” and the inhibition (Staphylococcus aureus [15]) was “Active”. The inhibition (Staphylococcus aureus [16]) was “Active”, the inhibition (Staphylococcus aureus [17]) was “Active” and the inhibition (Staphylococcus aureus [18]) was “Active”. For the same molecule, the inhibition (Staphylococcus aureus [19]) was “Active”, the inhibition (Staphylococcus aureus [20]) was “Active” and the inhibition (Staphylococcus aureus [21]) was “Active”. The inhibition (Staphylococcus aureus [22]) was “Active”, the inhibition (Staphylococcus aureus [23]) was “Active” and the inhibition (Staphylococcus aureus [24]) was “Active”. The inhibition (Staphylococcus aureus [25]) was “Active”, the inhibition (Staphylococcus aureus [26]) was “Active” and the inhibition (Staphylococcus aureus [27]) was “Active”. The inhibition (Staphylococcus aureus [28]) was “Active”, the inhibition (Staphylococcus aureus [29]) was “Active” and the inhibition (Staphylococcus aureus [30]) was “Active”. The inhibition (Staphylococcus aureus [31]) was “Active”, the inhibition (Staphylococcus aureus [32]) was “Active” and the inhibition (Staphylococcus aureus [33]) was “Active”. The inhibition (Staphylococcus aureus [34]) was “Active”, the inhibition (Staphylococcus aureus [35]) was “Active” and the inhibition (Staphylococcus aureus [36]) was “Active”. The inhibition (Staphylococcus aureus [37]) was “Active”, the inhibition (Staphylococcus aureus [38]) was “Active” and the inhibition (Staphylococcus aureus [39]) was “Active”. For the same molecule, the inhibition (Staphylococcus aureus [40]) was “Active” and the survival at 10 mg/kg (Staphylococcus aureus [41]) was greater than 60%.
